For one data set, the system named is MCF-7. Briefly: Antiproliferative assay (MTT). The format is cell-based. The conditions noted are these: Homo sapiens, MCF7, MCF-7 (breast), read-out: Antiproliferative activity IC50 ± SEM, MCF-7. The source says:
(§1) The MTT test was employed for this investigation ([Hisham et al., 2022]; [El-Sherief et al., 2019]; [Ramadan et al., 2020]). Table 2 presents the four cancer cell lines’ median inhibitory concentration (IC50) and GI50 (average IC50) values.
(§2) The MTT test was employed for this investigation ([Hisham et al., 2022]; [El-Sherief et al., 2019]; [Ramadan et al., 2020]). The IC50 values were derived from dose-response tests. The reported data are derived from at least two independent studies, each comprising three replicates per concentration. See Supplementary Material A1 for more details.
(§3) (in 0.1% DMSO) were added (in 200 μL medium to yield a final concentration of 0.1% v/v) to the wells of plates. A single compound was designated with four wells followed by incubation of plates for 96h at 37°C. After incubation, medium was removed completely from the plates followed by addition of MTT (0.4 mg/mL in medium) to each well and subsequent incubation of plates for 3h. MTT (along with the medium) was removed and DMSO (150μL) was added to each well of the culture plates, followed by vertexing and subsequent measurement of absorbance (at 540 nm) using microplate reader. The data are shown as percentage inhibition of proliferation in comparison with controls containing 0.1% DMSO.
(§4) 4.2.1.2. Assay for antiproliferative effect […]
(§5) (10%) and 1 µg/mL each of aprotinin, leupeptin and pepstatin for 120 min. The purification was performed either at 4 °C or on ice. To record autophosphorylation level, EGFR kinase assay was carried out on the basis of DELFIA/Time-Resolved Fluorometry. The compounds were first
(§6) (1 picture or pasted object on this page, not shown here)

The test system of a further data set is HT-29. Briefly: Antiproliferative assay (MTT). The format is cell-based. The conditions noted are these: Homo sapiens, HT-29 (colon), read-out: Antiproliferative activity IC50 ± SEM, HT-29.
Description: as §1, §2, §3, §4, §5, §6

The subject of another data set is A-549. In words: Antiproliferative assay (MTT). Format: cell-based. The conditions noted are these: Homo sapiens, A549, A-549 (lung), read-out: Antiproliferative activity IC50 ± SEM, A-549.
Description: as §1, §2, §3, §4, §5, §6

In the next data set the test system is Panc-1. Briefly: Antiproliferative assay (MTT). The format is cell-based. The conditions noted are these: Homo sapiens, Panc-1 (pancreatic), read-out: Antiproliferative activity IC50 ± SEM, Panc-1.
Description: as §1, §2, §3, §4, §5, §6

A further data set concerns the target VEGFR-2 (Homo sapiens, UniProt P35968). In words: VEGFR-2 inhibitory assay.
Data set [1] in a line: Experimental lipophilicity by RP-TLC. Format: physicochemical. The conditions noted are these: for Experimental lipophilicity RMo: MeOH/water mobile phase; for Experimental lipophilicity Co: concentration of MeOH at RM = 0, in % (unit assumed). The source says:
The RP-TLC method was used to measure the lipophilicity parameters (RMo, b, and Co) described in the experimental section. The mobile phase consisted of different proportions of water and organic modifier (MeOH). RF and RM values were obtained for each ratio of organic modifier/water system (Supplementary Table S3), and a linear regression analysis was achieved to obtain the lipophilicity chromatographic descriptors (RMo, b, and Co, see Table 6). Relative lipophilicity (RMo) describes the partitioning of the solute between pure water and nonpolar stationary phase. In contrast, the second lipophilicity parameter (Co) represents the concentration of organic modifier in the mobile phase in which the solute is equally distributed between two phases (i.e., RM = 0, and Rf = 0.5). Also, Co is known to be widely used in QSAR analysis as it embraces both the specific hydrophobic surface area of the solute and RMo. […] Finally, the slope of the regression line (b) was used as a descriptor of the specific hydrophobic surface area of the compound. In a series of structurally related compounds, b is linearly correlated with RMo, resulting in a linear relationship that is the basic feature of the chromatographic determination of lipophilicity. […] Moreover, substituents affected tested compounds’ measured lipophilicity parameter (RMo) values. Higher RMo values were found with lipophilic derivatives containing the benzyl group (14, 22, and 28), while lower RMo values were found with derivatives containing alkyl or allyl groups (19, 26, and 27). An interesting contradiction was found with experimental lipophilicity value of 28 and its congener 14, where compound 28 was found more lipophilic than its congener 14 even though it contains two methoxy groups and according to ChemDraw® and MolSoft® programs, derivative 14 should be more lipophilic while the MOE® program expects values matching our findings. […] Also, S-allyl derivatives were nearly equipotent to S-alkyl congeners as antiproliferative agents but quite different in terms of lipophilicity.

The next data set deals with T1, EGFR (Homo sapiens, UniProt P00533).
T1 construct: amino acids 645–1186; His6 (N); made in house; host or cells: Sf-9 insect cells (baculovirus; pBlueBacHis2B / pFASTBacHTc)
In words: EGFR-TK inhibitory assay. Format: biochemical. The conditions noted are these: read-out: EGFR inhibition IC50 ± SEM.

Where “and” joins values, the source holds several entries; their conditions need not be identical. Identical values can stand only once.

Chain of VEGFR-2 (P35968 20-1356): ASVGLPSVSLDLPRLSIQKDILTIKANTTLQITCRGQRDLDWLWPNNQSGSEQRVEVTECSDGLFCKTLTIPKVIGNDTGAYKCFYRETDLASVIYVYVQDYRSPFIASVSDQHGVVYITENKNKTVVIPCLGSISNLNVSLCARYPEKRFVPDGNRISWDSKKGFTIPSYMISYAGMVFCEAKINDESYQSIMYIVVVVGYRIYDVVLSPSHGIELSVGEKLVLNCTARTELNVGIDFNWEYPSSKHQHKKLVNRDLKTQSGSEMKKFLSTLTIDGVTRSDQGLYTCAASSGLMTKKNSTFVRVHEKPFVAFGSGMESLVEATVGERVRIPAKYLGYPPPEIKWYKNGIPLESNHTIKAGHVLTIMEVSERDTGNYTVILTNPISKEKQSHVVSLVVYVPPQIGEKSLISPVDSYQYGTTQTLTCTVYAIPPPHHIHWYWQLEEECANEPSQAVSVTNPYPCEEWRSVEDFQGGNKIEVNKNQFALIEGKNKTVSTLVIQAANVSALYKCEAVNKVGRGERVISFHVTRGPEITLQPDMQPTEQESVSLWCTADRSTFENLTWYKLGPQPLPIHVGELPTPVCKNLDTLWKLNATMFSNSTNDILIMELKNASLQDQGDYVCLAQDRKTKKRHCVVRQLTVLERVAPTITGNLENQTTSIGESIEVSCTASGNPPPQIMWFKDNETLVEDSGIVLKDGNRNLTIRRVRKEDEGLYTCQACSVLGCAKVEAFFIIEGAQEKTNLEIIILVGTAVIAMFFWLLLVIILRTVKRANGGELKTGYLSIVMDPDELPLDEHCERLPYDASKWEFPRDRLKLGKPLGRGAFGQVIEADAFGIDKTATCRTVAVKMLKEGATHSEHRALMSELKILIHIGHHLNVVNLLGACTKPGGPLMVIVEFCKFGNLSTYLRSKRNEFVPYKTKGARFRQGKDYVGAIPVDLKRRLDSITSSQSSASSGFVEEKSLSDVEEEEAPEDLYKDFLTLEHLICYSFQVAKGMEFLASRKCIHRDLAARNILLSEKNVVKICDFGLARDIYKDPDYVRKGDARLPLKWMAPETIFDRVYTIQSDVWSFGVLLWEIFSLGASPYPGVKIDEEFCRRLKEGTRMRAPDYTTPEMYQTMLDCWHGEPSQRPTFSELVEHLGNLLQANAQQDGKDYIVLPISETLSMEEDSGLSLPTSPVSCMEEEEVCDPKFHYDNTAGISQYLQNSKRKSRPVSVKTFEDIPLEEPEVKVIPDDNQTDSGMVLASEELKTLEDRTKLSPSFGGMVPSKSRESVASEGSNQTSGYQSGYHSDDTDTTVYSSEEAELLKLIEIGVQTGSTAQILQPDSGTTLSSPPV
T1 sequence (P00533 669-1210): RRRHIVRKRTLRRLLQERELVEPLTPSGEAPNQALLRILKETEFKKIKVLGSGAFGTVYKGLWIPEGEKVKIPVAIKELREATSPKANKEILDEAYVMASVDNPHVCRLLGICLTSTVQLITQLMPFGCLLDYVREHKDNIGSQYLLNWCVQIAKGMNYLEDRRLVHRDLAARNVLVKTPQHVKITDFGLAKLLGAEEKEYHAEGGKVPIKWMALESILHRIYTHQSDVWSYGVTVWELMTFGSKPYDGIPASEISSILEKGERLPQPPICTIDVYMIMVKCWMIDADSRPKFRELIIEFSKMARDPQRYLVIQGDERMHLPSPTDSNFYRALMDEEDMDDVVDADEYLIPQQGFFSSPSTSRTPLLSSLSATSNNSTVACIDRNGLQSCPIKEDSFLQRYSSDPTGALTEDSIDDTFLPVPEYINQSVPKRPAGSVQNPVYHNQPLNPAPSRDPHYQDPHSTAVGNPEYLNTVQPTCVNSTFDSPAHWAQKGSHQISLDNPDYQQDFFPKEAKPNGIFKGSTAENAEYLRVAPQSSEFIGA

As for `CCCSc1nc(-c2ccc(Cl)cc2)cc(-c2ccc(OC)cc2)n1` [Compound 11, 4-(4-Chlorophenyl)-6-(4-methoxyphenyl)-2-(propylthio)pyrimidine], the half-inhibitory concentration (IC50) amounted to 55 ± 5 nM in the data set on MCF-7, 53 ± 5 nM in the data set on HT-29, 52 ± 5 nM with A-549 and 54 ± 5 nM in the data set on Panc-1.
Regarding `COc1ccc(CSc2nc(-c3ccc(OC)cc3)cc(-c3cccc(OC)c3)n2)cc1` [Compound 22, 2-(4-Methoxybenzylthio)-6-(3-methoxyphenyl)-4-(4-methoxyphenyl)pyrimidine], the IC50 with MCF-7 was determined as 23 ± 2 nM; in the data set on HT-29, 23 ± 2 nM; with A-549, 21 ± 2 nM; in the data set on Panc-1, 22 ± 2 nM; on VEGFR-2, 1.15 ± 0.01 nM. Further, in data set [1], the “Experimental lipophilicity RMo” value was 6.449 ± 0.05873 and 6.24. The “Experimental lipophilicity Co” value in data set [1] was 90.6598 and 87.7.
Regarding `COc1ccc(-c2cc(-c3ccc(Cl)cc3)nc(SC)n2)cc1` [Compound 9, 4-(4-Chlorophenyl)-6-(4-methoxyphenyl)-2-(methylthio)pyrimidine], the IC50 in the data set on MCF-7 was 65 ± 6 nM; in the data set with HT-29 it was 62 ± 6 nM; in the data set on A-549, 60 ± 5 nM; with Panc-1, 62 ± 6 nM.
For `CCCSc1nc(-c2ccc(Cl)cc2)cc(-c2ccc(OC)c(OC)c2)n1` [Compound 25, 4-(4-Chlorophenyl)-6-(3,4-dimethoxyphenyl)-2-(propylthio)pyrimidine], the IC50 in the data set on MCF-7 came out at 34 ± 3 nM; with HT-29, 32 ± 3 nM; with A-549, 32 ± 3 nM; with Panc-1, 32 ± 3 nM; at VEGFR-2, 2.95 ± 0.02 nM; on EGFR it was 78 ± 5 nM.
For `COc1ccc(-c2cc(-c3cccc(OC)c3)nc(SC)n2)cc1` [Compound 16, 6-(3-Methoxyphenyl)-4-(4-methoxyphenyl)-2-(methylthio)pyrimidine], the IC50 in the data set with MCF-7 stood at 89 ± 8 nM; in the data set on HT-29, 85 ± 8 nM; with A-549 it was 86 ± 7 nM; with Panc-1 it was 85 ± 8 nM.
As for `COc1ccc(CSc2nc(-c3ccc(Cl)cc3)cc(-c3ccc(OC)c(OC)c3)n2)cc1` [Compound 29, 2-(4-Methoxybenzylthio)-4-(4-chlorophenyl)-6-(3,4-dimethoxyphenyl)pyrimidine], the IC50 was 25 ± 2 nM in the data set with MCF-7; 24 ± 2 nM in the data set with HT-29; 23 ± 2 nM with A-549; 23 ± 2 nM in the data set on Panc-1; 1.6 ± 0.01 nM against VEGFR-2; 72 ± 5 nM at EGFR.
As for `CCSc1nc(-c2ccc(OC)cc2)cc(-c2cccc(OC)c2)n1` [Compound 17, 2-(Ethylthio)-6-(3-methoxyphenyl)-4-(4-methoxyphenyl)pyrimidine], the IC50 in the data set with MCF-7 was 30 ± 3 nM; in the data set on HT-29, 29 ± 2 nM; in the data set on A-549, 28 ± 2 nM; with Panc-1 it was 28 ± 2 nM; against VEGFR-2 it was 1.85 ± 0.01 nM; on EGFR, 87 ± 6 nM.
Take `C=CCSc1nc(-c2ccc(Cl)cc2)cc(-c2ccc(OC)c(OC)c2)n1` [Compound 27, 2-(Allylthio)-4-(4-chlorophenyl)-6-(3,4-dimethoxyphenyl)pyrimidine]: the IC50 with MCF-7 amounted to 60 ± 6 nM; in the data set with HT-29 it was 60 ± 6 nM; in the data set with A-549 it was 56 ± 5 nM; in the data set with Panc-1 it was 58 ± 5 nM. Besides, the “Experimental lipophilicity RMo” value in data set [1] is 5.79. Further, the “Experimental lipophilicity Co” value in data set [1] was 87.9561 and 86.52.
With `COc1ccc(-c2cc(-c3ccc(Cl)cc3)nc(SC(C)C)n2)cc1OC` [Compound 26, 4-(4-Chlorophenyl)-2-(isopropylthio)-6-(3,4-dimethoxyphenyl)pyrimidine], the IC50 in the data set with MCF-7 was determined as 42 ± 3 nM; in the data set on HT-29, 42 ± 3 nM; in the data set on A-549 it was 40 ± 3 nM; with Panc-1, 40 ± 3 nM. Moreover, the “Experimental lipophilicity RMo” value in data set [1] is listed as 6.45. In addition, in data set [1], the “Experimental lipophilicity Co” value is 86.518 and 90.64.
For the molecule `C=CCSc1nc(-c2ccc(Cl)cc2)cc(-c2ccc(OC)cc2)n1` [Compound 13, 2-(Allylthio)-4-(4-chlorophenyl)-6-(4-methoxyphenyl)pyrimidine], the IC50 in the data set with MCF-7 was 68 ± 6 nM; with HT-29, 64 ± 6 nM; in the data set on A-549 it was 64 ± 6 nM; in the data set with Panc-1, 66 ± 6 nM.
Consider `CCSc1nc(-c2ccc(Cl)cc2)cc(-c2ccc(OC)c(OC)c2)n1` [Compound 24, 4-(4-Chlorophenyl)-2-(ethylthio)-6-(3,4-dimethoxyphenyl)pyrimidine], for which the IC50 in the data set with MCF-7 turned out to be 33 ± 3 nM; in the data set with HT-29, 31 ± 3 nM; in the data set with A-549, 30 ± 3 nM; in the data set with Panc-1 it was 30 ± 3 nM.
Regarding `CCSc1nc(-c2ccc(Cl)cc2)cc(-c2ccc(OC)cc2)n1` [Compound 10, 4-(4-Chlorophenyl)-2-(ethylthio)-6-(4-methoxyphenyl)pyrimidine], the IC50 with MCF-7 worked out at 79 ± 7 nM; with HT-29, 74 ± 7 nM; in the data set with A-549, 75 ± 7 nM; in the data set on Panc-1, 76 ± 7 nM.
The matching figures for `COc1ccc(-c2cc(-c3ccc(Cl)cc3)nc(SC)n2)cc1OC` [Compound 23, 4-(4-Chlorophenyl)-6-(3,4-dimethoxyphenyl)-2-(methylthio)pyrimidine]: 50 ± 4 nM, 48 ± 4 nM, 48 ± 4 nM and 47 ± 4 nM.
Take `COc1ccc(-c2cc(-c3ccc(Cl)cc3)nc(SC(C)C)n2)cc1` [Compound 12, 4-(4-Chlorophenyl)-2-(isopropylthio)-6-(4-methoxyphenyl)pyrimidine]: the IC50 with MCF-7 stood at 37 ± 3 nM; with HT-29, 36 ± 3 nM; in the data set with A-549 it was 35 ± 3 nM; in the data set on Panc-1, 36 ± 3 nM.
As to `C=CCSc1nc(-c2ccc(OC)cc2)cc(-c2cccc(OC)c2)n1` [Compound 20, 2-(Allylthio)-6-(3-methoxyphenyl)-4-(4-methoxyphenyl)pyrimidine], the IC50 in the data set on MCF-7 is 73 ± 6 nM; in the data set with HT-29 it was 72 ± 4 nM; with A-549, 70 ± 6 nM; in the data set on Panc-1, 70 ± 6 nM.
As for `COc1ccc(CSc2nc(-c3ccc(Cl)cc3)cc(-c3ccc(OC)cc3)n2)cc1` [Compound 15, 2-(4-Methoxybenzylthio)-4-(4-chlorophenyl)-6-(4-methoxyphenyl)pyrimidine], the IC50 amounted to 82 ± 7 nM in the data set with MCF-7, 80 ± 7 nM in the data set with HT-29, 79 ± 7 nM with A-549 and 80 ± 7 nM with Panc-1.
Take `CCCSc1nc(-c2ccc(OC)cc2)cc(-c2cccc(OC)c2)n1` [Compound 18, 6-(3-Methoxyphenyl)-4-(4-methoxyphenyl)-2-(propylthio)pyrimidine]: the IC50 is 46 ± 4 nM with MCF-7, 46 ± 4 nM with HT-29, 45 ± 4 nM in the data set on A-549 and 44 ± 4 nM in the data set on Panc-1.
As to `COc1ccc(-c2cc(-c3ccc(Cl)cc3)nc(SCc3ccccc3)n2)cc1OC` [Compound 28, 2-(Benzylthio)-4-(4-chlorophenyl)-6-(3,4-dimethoxyphenyl)pyrimidine], the IC50 with MCF-7 is 43 ± 3 nM; in the data set on HT-29, 41 ± 3 nM; in the data set on A-549 it was 39 ± 3 nM; with Panc-1 it was 40 ± 3 nM. Also, the “Experimental lipophilicity RMo” value in data set [1] is 5.32. Moreover, the “Experimental lipophilicity Co” value in data set [1] is 91.4199 and 87.18.

Broadly, the IC50 is the concentration at which inhibition is half-maximal.
